Data taken from the NIST ThermoML archive (doi:10.1016/j.fluid.2014.04.038).
Where “and” joins values, the source holds several entries; their conditions need not be identical. Equal entries are not always repeated.

Settings: Hot wire method

CCF [fluoroethane]
Gas
Settings	thermal conductivity [W/m/K]
327.04 K, 1095.3 kPa	0.01963
327.1 K, 807.3 kPa	0.01901
327.1 K, 968 kPa	0.01947
327.18 K, 798.3 kPa	0.01958
327.49 K, 616.5 kPa	0.01891
327.67 K, 420.8 kPa	0.01907
327.88 K, 999.2 kPa	0.01944
328.12 K, 807.3 kPa	0.01964
328.26 K, 616.5 kPa	0.0193
328.79 K, 420.8 kPa	0.01938
332.17 K, 969.9 kPa	0.02009
332.31 K, 756.8 kPa	0.01954
332.66 K, 396.8 kPa	0.01951
332.66 K, 969.9 kPa	0.02013
333.3 K, 756.8 kPa	0.01971
333.74 K, 396.8 kPa	0.01972
336.09 K, 1491 kPa	0.02082
336.27 K, 1198.3 kPa	0.02033
336.49 K, 1758.2 kPa	0.02175
336.67 K, 1491 kPa	0.02077
336.83 K, 865.8 kPa	0.01986
336.9 K, 1198.3 kPa	0.02068
336.91 K, 706.3 kPa	0.01983
337.06 K, 1758.2 kPa	0.02164
337.27 K, 1491 kPa	0.0208
337.33 K, 480.3 kPa	0.02
337.56 K, 1198.3 kPa	0.02055
337.61 K, 206.2 kPa	0.02003
337.81 K, 865.8 kPa	0.01999
337.89 K, 706.3 kPa	0.01991
338.08 K, 480.3 kPa	0.01991
338.76 K, 206.2 kPa	0.02026
345.5 K, 2260 kPa	0.0234
345.62 K, 2008 kPa	0.02287
345.73 K, 1253.4 kPa	0.02123
345.76 K, 1802.5 kPa	0.02255
345.91 K, 1001.2 kPa	0.0213
346.04 K, 748.6 kPa	0.02153
346.17 K, 2008 kPa	0.02305
346.18 K, 454.4 kPa	0.02091
346.2 K, 1802.5 kPa	0.02205
346.23 K, 2260 kPa	0.02334
346.43 K, 1560.1 kPa	0.02199
346.52 K, 1253.4 kPa	0.02134
346.59 K, 250.1 kPa	0.02108
346.68 K, 1001.2 kPa	0.02108
346.83 K, 454.4 kPa	0.02085
346.87 K, 2260 kPa	0.02339
346.91 K, 748.6 kPa	0.02154
347.13 K, 2008 kPa	0.02317
347.22 K, 1802.5 kPa	0.02234
347.3 K, 250.1 kPa	0.02135
347.67 K, 1560.1 kPa	0.02199
347.86 K, 1253.4 kPa	0.02137
348.08 K, 1001.2 kPa	0.02122
348.34 K, 748.6 kPa	0.02136
348.4 K, 250.1 kPa	0.0215
348.67 K, 454.4 kPa	0.02127
355.01 K, 2934.5 kPa	0.02654
355.38 K, 2586.5 kPa	0.02498

Liquid
Settings	thermal conductivity
334.87 K	0.09073 W/m/K and 0.09116 W/m/K and 0.09121 W/m/K
335.25 K	0.09091 W/m/K and 0.09082 W/m/K
335.26 K	0.09123 W/m/K
335.66 K	0.09055 W/m/K and 0.09054 W/m/K
335.67 K	0.09089 W/m/K
344.8 K	0.08543 W/m/K
344.82 K	0.08529 W/m/K and 0.08532 W/m/K
345.2 K	0.08496 W/m/K
345.21 K	0.08506 W/m/K and 0.08519 W/m/K
345.68 K	0.08484 W/m/K
345.7 K	0.08488 W/m/K
345.72 K	0.08489 W/m/K
354.61 K	0.081 W/m/K
354.62 K	0.08121 W/m/K and 0.08127 W/m/K
354.87 K	0.08113 W/m/K
354.88 K	0.08093 W/m/K and 0.08129 W/m/K
354.89 K	0.08101 W/m/K
354.97 K	0.08115 W/m/K
354.99 K	0.08085 W/m/K
355 K	0.08097 W/m/K
355.29 K	0.0807 W/m/K and 0.08094 W/m/K
355.3 K	0.08092 W/m/K
355.37 K	0.08104 W/m/K
355.38 K	0.08142 W/m/K and 0.08125 W/m/K
